Like-named read-outs stand apart in the source and are kept apart here.
Key:
[1] = target: T1, recombinant RORγ Ligand Binding Domain (LBD) protein (Homo sapiens, UniProt P51449); test: Radio-Ligand RORγ Binding Assay (Assay 1); conditions: radio-ligand competition, RORγ LBD, read-out: Avg ROR Bind Ki
T1 construct: 6×His; GST
T1 sequence (P51449 269-508 limits assumed): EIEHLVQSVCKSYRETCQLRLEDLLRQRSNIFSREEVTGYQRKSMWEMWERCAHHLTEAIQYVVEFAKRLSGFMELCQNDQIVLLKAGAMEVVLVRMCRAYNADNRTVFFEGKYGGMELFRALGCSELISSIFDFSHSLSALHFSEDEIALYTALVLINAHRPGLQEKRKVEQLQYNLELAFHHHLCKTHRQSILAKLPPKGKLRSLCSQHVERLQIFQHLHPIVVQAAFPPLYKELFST
Outline: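 Cell-free SPA competition between compound and 25-hydroxy[26,27-^3H]-cholesterol for 6×His-GST-tagged RORγ LBD in 50 mM HEPES pH 7.4 with NaCl, MgCl2, glycerol, CHAPS, octylglucoside and DTT. Mix was shaken 20 min, held 10 min at rt, then read after poly-Lys YSi beads. IC50 came from a four-parameter fit, and Ki from radioligand KD.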

[2] = target: T2, full-length RORγt in Jurkat cells (Homo sapiens, UniProt P51449); test: RORγt 5×RORE Assay in Jurkat Cells (Assay 2); type: cell-based; conditions: 5×RORE luciferase reporter
T2 construct: transcriptional activity of the full-length RORγt in Jurkat cells; host or cells: Jurkat cells (ATCC TIB-152)
T2 sequence (P51449 1-497 isoform P51449-2): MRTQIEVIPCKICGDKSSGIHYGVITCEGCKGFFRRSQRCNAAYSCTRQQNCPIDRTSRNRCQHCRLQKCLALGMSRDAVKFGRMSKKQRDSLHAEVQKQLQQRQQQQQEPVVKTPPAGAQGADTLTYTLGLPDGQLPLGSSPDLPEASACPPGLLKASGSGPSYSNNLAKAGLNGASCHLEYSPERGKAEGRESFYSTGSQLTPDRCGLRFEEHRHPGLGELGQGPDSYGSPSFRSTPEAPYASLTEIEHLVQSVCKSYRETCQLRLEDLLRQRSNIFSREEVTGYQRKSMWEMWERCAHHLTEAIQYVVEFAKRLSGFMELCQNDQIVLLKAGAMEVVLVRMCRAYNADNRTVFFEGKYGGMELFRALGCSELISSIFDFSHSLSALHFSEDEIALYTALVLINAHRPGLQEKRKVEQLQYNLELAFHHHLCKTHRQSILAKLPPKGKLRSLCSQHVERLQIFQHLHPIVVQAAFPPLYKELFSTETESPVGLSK
Outline: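 Inverse agonism measured as reduced NanoGlo signal from secreted NanoLuc in conditioned supernatant after 16-18 hrs compound exposure (37° C, 0.1% DMSO). Reporter: 5×RORE-driven secNluc, co-transfected with full-length RORγt into Jurkat cells cultured in delipidated-FBS, phenol-red-free RPMI.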

[3] = 25-hydroxy [26,27-3H]-cholesterol
[4] = Table 20, read-out: Avg ROR γt/5x IC5
[5] = head without unit (Tables 15, 17)
[6] = head without unit (Tables 15, 17), read-out: Avg ROR γt/5x IC50

Row | Compound | Ki [1, 3] [nM] | IC50 [2, 4] [nM] | Ki [1, 5] [nM] | IC50 [2, 6] [nM] | IC50 ([2]; read-out: Avg ROR γt/5x IC50) [nM]
1 | CCS(=O)(=O)c1ccc([C@H](CO)NC(=O)c2cc3ccnc(OCc4ccc(C(F)(F)F)cc4)c3n2C)cc1 [Hy4-4, (R)-N-(1-(4-(ethylsulfonyl)phenyl)-2-hydroxyethyl)-1-methyl-7-((4-(trifluoromethyl)benzyl)oxy)-1H-pyrrolo[2,3-c]pyridine-2-carboxamide] |  |  | < 100 | 100 to 1000 | 
2 | CC[C@@H]1CN(c2ncc(Cl)cn2)Cc2cc(C(=O)N[C@@H](CO)c3ccc(S(=O)(=O)CC)cc3)ccc21 (single isomer, unassigned) [Hy7-6.1] | < 100 | > 1000 |  |  | 
3 | CCS(=O)(=O)c1ccc(CNC(=O)c2ccc3c(c2)CCN(Cc2ccc(OC(F)F)nc2)[C@H]3C(C)C)cc1 (single isomer, unassigned) [Hy2A-25.1] | < 100 |  |  |  | < 100
4 | CCS(=O)(=O)c1ccc(CNC(=O)c2ccc3c(c2)CCN(Cc2ncc(Br)cn2)[C@H]3C(C)C)cc1 (single isomer, unassigned) [Hy2A-26.1] | < 100 |  |  |  | 100 to 1000
5 | CCS(=O)(=O)c1ccc([C@H](CO)NC(=O)c2ccc3c(Oc4ccc(OC(F)(F)F)cc4)nc(C)cc3c2)cc1 [Hy1A-15, (R)-N-(1-(4-(ethylsulfonyl)phenyl)-2-hydroxyethyl)-3-methyl-1-(4-(trifluoromethoxy)phenoxy)isoquinoline-6-carboxamide] | < 100 |  |  |  | 100 to 1000
6 | CC[C@@H]1CN(c2ccc(C(F)(F)F)cn2)Cc2cc(C(=O)NCc3ccc(S(=O)(=O)CC)cc3)ccc21 (single isomer, unassigned) [Hy7-8.1] | < 100 | < 100 |  |  | 
7 | CCS(=O)(=O)c1ccc(CNC(=O)c2ccc3c(c2)CN(c2ncc(C4CC4)cn2)C[C@@H]3C(C)C)cc1 (single isomer, unassigned) [Hy7-4.2] | < 100 | > 1000 |  |  | 
8 | CC[C@H]1CN(c2ccc(C(F)(F)F)cn2)Cc2cc(C(=O)NCc3ccc(S(=O)(=O)CC)cc3)ccc21 (single isomer, unassigned) [Hy7-8.2] | < 100 | 100 to 1000 |  |  | 
9 | CCS(=O)(=O)c1ccc([C@H](CO)NC(=O)c2ccc3c(OC4CCN(CC(F)(F)F)CC4)nc(C)cc3c2)cc1 [Hy1A-17, (R)-N-(1-(4-(ethylsulfonyl)phenyl)-2-hydroxyethyl)-3-methyl-1-((1-(2,2,2-trifluoroethyl)piperidin-4-yl)oxy)isoquinoline-6-carboxamide] | < 100 |  |  |  | > 1000
10 | CCS(=O)(=O)c1ccc(CNC(=O)c2ccc3c(c2)CN(c2ncc(F)cn2)C[C@H]3C(C)C)cc1 (single isomer, unassigned) [Hy7-1.1] | < 100 | > 1000 |  |  | 
11 | CCS(=O)(=O)c1ccc(CNC(=O)c2ccc3c(c2)CCN(Cc2ccc(F)cc2)C3C(C)C)cc1 (racemic) [Hy2A-13, N-(4-(ethylsulfonyl)benzyl)-2-(4-fluorobenzyl)-1-isopropyl-1,2,3,4-tetrahydroisoquinoline-6-carboxamide] | < 100 |  |  |  | < 100
12 | CCS(=O)(=O)c1ccc([C@H](CO)NC(=O)c2cnc3c(C4CC4)n(C[C@H]4CC[C@H](C(F)(F)F)CC4)nc3c2)cc1 [Hy3B-1, 3-cyclopropyl-N-((R)-1-(4-(ethylsulfonyl)phenyl)-2-hydroxyethyl)-2-(((1r,4R)-4-(trifluoromethyl)cyclohexyl)methyl)-2H-pyrazolo[4,3-b]pyridine-6-carboxamide] | < 100 |  |  |  | < 100
13 | CCS(=O)(=O)c1ccc(CNC(=O)c2cnc3c(c2)CCN(C[C@H]2CC[C@H](C(F)(F)F)CC2)[C@H]3C(C)C)cc1 (single isomer, unassigned) [Hy2B-9.1] |  |  | < 100 | 100 to 1000 | 
14 | CCS(=O)(=O)c1ccc([C@H](CO)NC(=O)c2ccc3c(OCC4CC(F)(F)C4)nc(C)cc3c2)cc1 [Hy1A-12, (R)-1-((3,3-difluorocyclobutyl)methoxy)-N-(1-(4-(ethylsulfonyl)phenyl)-2-hydroxyethyl)-3-methylisoquinoline-6-carboxamide] | < 100 |  |  |  | > 1000
15 | Mixture of N-((R)-1-(4-(ethylsulfonyl)phenyl)-2-hydroxyethyl)-3-methyl-1-(((3S,6S)-6-(trifluoromethyl)tetrahydro-2H-pyran-3-yl)methoxy)isoquinoline-6-carboxamide and N-((R)-1-(4-(ethylsulfonyl)phenyl)-2-hydroxyethyl)-3-methyl-1-(((3R,6R)-6-(trifluoromethyl)tetrahydro-2H-pyran-3-yl)methoxy)isoquinoline-6-carboxamide [Hy1A-18.3] | < 100 |  |  |  | > 1000
16 | CCS(=O)(=O)c1ccc(CNC(=O)c2cc3ccnc(OC[C@H]4CC[C@H](C(F)(F)F)CC4)c3n2C)cc1 [Hy4-1, N-(4-(ethylsulfonyl)benzyl)-1-methyl-7-(((1r,4r)-4-(trifluoromethyl)cyclohexyl)methoxy)-1H-pyrrolo[2,3-c]pyridine-2-carboxamide] |  |  | < 100 | 100 to 1000 | 
17 | CCS(=O)(=O)c1ccc(CNC(=O)c2cnc3c(c2)CCN(Cc2ccc(F)cc2)C3C(C)C)cc1 (single isomer, unassigned) [Hy2B-6.1] |  |  | < 100 | > 1000 | 
18 | CCS(=O)(=O)c1ccc([C@H](CO)NC(=O)c2ccc3c(OC[C@H]4CC[C@H](C(F)(F)F)CC4)nc(OC)cc3c2)cc1 [Hy1A-23, N-((R)-1-(4-(ethylsulfonyl)phenyl)-2-hydroxyethyl)-3-methoxy-1-(((1r,4R)-4-(trifluoromethyl)cyclohexyl)methoxy)isoquinoline-6-carboxamide] | < 100 |  |  |  | < 100
19 | CCS(=O)(=O)c1ccc(CNC(=O)c2ccc3c(C4CC4)n(C[C@H]4CC[C@H](C(F)(F)F)CC4)nc3c2)cc1 [Hy3A-2, 3-cyclopropyl-N-(4-(ethylsulfonyl)benzyl)-2-(((1r,4r)-4-(trifluoromethyl)cyclohexyl)methyl)-2H-indazole-6-carboxamide] | < 100 |  |  |  | < 100

Continued, values first:

Row | Ki [1, 3] [nM] | IC50 [2, 4] [nM] | Ki [1, 5] [nM] | IC50 [2, 6] [nM] | IC50 ([2]; read-out: Avg ROR γt/5x IC50) [nM] | Compound
20 | < 100 | < 100 |  |  |  | CC[C@H]1CN(c2ncc(C(F)(F)F)cn2)Cc2cc(C(=O)NCc3ccc(S(=O)(=O)CC)cn3)ccc21 (single isomer, unassigned) [Hy7-10.1]
21 | < 100 | 100 to 1000 |  |  |  | CCS(=O)(=O)c1ccc(CNC(=O)c2ccc3c(c2)CN(c2ncc(-c4ccc(=O)[nH]c4)cn2)C[C@H]3C(C)C)cc1 (single isomer, unassigned) [Hy7-21.1]
22 | < 100 | < 100 |  |  |  | CC[C@@H]1CN(c2ncc(C(F)(F)F)cc2C)Cc2cc(C(=O)N[C@@H](CO)c3ccc(S(=O)(=O)CC)cc3)ccc21 (single isomer, unassigned) [Hy7-22.1]
23 | < 100 | < 100 |  |  |  | CC[C@@H]1CN(c2ncc(-c3ncco3)cn2)Cc2cc(C(=O)NCc3ccc(S(=O)(=O)CC)cc3)ccc21 (single isomer, unassigned) [Hy7-31.1]
24 | < 100 | > 1000 |  |  |  | CCS(=O)(=O)c1ccc(CNC(=O)c2ccc3c(c2)CN(c2ncc(C(F)(F)F)cn2)C[C@@H]3C(F)(F)F)cc1 (single isomer, unassigned) [Hy7-36.2]
25 | < 100 | < 100 |  |  |  | CC[C@@H]1CN(c2ncc(C(F)(F)F)cc2C#N)Cc2cc(C(=O)N[C@@H](CO)c3ccc(S(=O)(=O)CC)cc3)ccc21 (single isomer, unassigned) [Hy7-37.1]
26 | < 100 | < 100 |  |  |  | CCS(=O)(=O)c1ccc(CNC(=O)c2ccc3c(c2)CN(c2ncc(C(F)(F)F)cn2)C[C@H]3C(F)(F)F)cc1 (single isomer, unassigned) [Hy7-36.1]
27 | < 100 | 100 to 1000 |  |  |  | CC[C@H]1CN(c2ncc(C(F)(F)F)cc2C)Cc2cc(C(=O)NCc3ccc(S(=O)(=O)CC)cc3)ccc21 (single isomer, unassigned) [Hy7-13.2]
28 | < 100 | > 1000 |  |  |  | CCC1CN(C2CCC(C(F)(F)F)CC2)Cc2cc(C(=O)NC(CO)c3ccc(S(=O)(=O)CC)cc3)ccc21 (single isomer, unassigned) [Hy7-35.2]
29 | < 100 | < 100 |  |  |  | CCS(=O)(=O)c1ccc(CNC(=O)c2ccc3c(c2)CN(Cc2ccc(C#N)cc2)C[C@@H]3C(C)C)cc1 (single isomer, unassigned) [Hy7-28.2]

Source: patent US11008340B2, “Modulators of ROR-gamma” (Vitae Pharmaceuticals, LLC, priority 2015, dated 2021)
